Assay results as given in patent US6780397B2, “Biomolecule conjugation strategy using novel water-soluble phosphine-based chelating agents” (Curators of the University of Missouri, priority 1998, dated 2004).

Test: Stability of —PH2 compounds under storage and reaction conditions
Type: physicochemical
From the text: As a result of working with the Br(CH2)3 PH2 intermediate, it was recognized that the intermediate was unexpectedly stable under a variety of storage and reaction conditions.
Furthermore, the reactivity of the —PH2 groups in these compounds toward molecules containing a wide spectrum of functional groups (including carboxylic acids, amines, thiols, and proteins) was remarkably low or non-measurable.

| Compound | stability under storage and reaction conditions (variety of solvents, wide pH range and temperature range) | stability to reaction conditions of solid phase peptide synthesis (HBTU, piperidine, solutions in DMF, trifluoroacetic acid wash) | oxidation of —PH2 groups (during SPPS and analysis) | stability profile (wider range of chemical conditions than used with the Br(CH2)3PH2 intermediate) |
| --- | --- | --- | --- | --- |
| PCCCBr.[HH] [Br(CH2)3 PH2, 3-bromo-propyl phosphine hydride] | reasonably stable |  |  |  |
| O=C(O)CCCCC(CCSCCCP)SCCCP (stereo not shown) [(PH2)2S2—COOH, H2P(CH2)3SCH2CH2CH((CH2)4COOH)S(CH2)3PH2] |  | stable | resistant to oxidation | much improved stability profile |
